{"source": "patent US20240141291A1", "about": "“FUNCTIONAL BRAIN REGION-SPECIFIC NEURAL SPHEROIDS AND METHODS OF USE” (THE UNITED STATES OF AMERICA, AS REPRESENTED BY THE …, priority 2021, published 2024)", "assay_type_in_all_cases": "cell-based, human", "key": {"VTA-like spheroids [1]": {"test_system": "VTA-like spheroids", "assay": "Confocal (Phenix Plus) calcium recordings, opioid use disorder model", "details": "VTA-like spheroids expressing GCaMP6f; 10 μM DAMGO; day 21", "method": "(§1) Confocal Imaging: The Opera Phenix Plus High-Content Imaging System (Perkin Elmer) spinning disk confocal was used to record calcium activity from spheroids in individual wells. Prior to recording, the stage was pre-warmed to 37° C., and the carbon dioxide was set to 5%. Recordings were obtained both from spheroids expressing GCaMP6f along with those incubated in Cal6 dye. Recordings were captured with a 20× water immersion objective […] from the bottom of the well, and were obtained at a frame rate of 1.6 frames/sec with 480 frames total, making the recordings 5-min. The protocol was set to record well to well such that recordings were automated but taken from one spheroid at a time before recording from subsequent wells. […]\n(§2) For peak detection data obtained from the Phenix Plus confocal microscope, image sequences were stored in and exported from Columbus Image Data Storage and Analysis as single plane TIFFs. […] Prior to peak detection analysis, the T-function, F div F0, in ImageJ was used to obtain calcium signals normalized to background fluorescence. […] The correlation matrix was used to describe how synchronous the calcium activity within a spheroid was, and a synchrony score was measured by calculating the average correlation coefficient across the matrix. […]"}, "PFC-like spheroids [2]": {"test_system": "PFC-like spheroids", "assay": "Confocal (Phenix Plus) calcium recordings, opioid use disorder model", "details": "PFC-like spheroids expressing GCaMP6f; 10 μM DAMGO; day 21", "method": "as §1, §2"}, "VTA-like spheroids [3]": {"test_system": "VTA-like spheroids", "assay": "FLIPR calcium activity with Cal6 dye, control compounds / DAMGO (Example 3)", "details": "VTA-like spheroids in Cal6 dye; 10 μM DAMGO; day 21", "method": "(§3) Viruses and dyes: To assess calcium activity, the calcium dye, Cal6 (Molecular Devices), and genetically encoded calcium indicator, GCaMP6f (Addgene, cat #100836-AAV9) were used. Cal6 was used according to manufacturer's instructions and 10 mL of maintenance media was added to each vial. Two hours before activity was recorded, half of the spheroid media was exchanged for media with Cal6. The plates were covered in foil and placed in the incubator at 37° C. during the 2-hour (hr) incubation period. Since all viruses used were adeno-associated viruses (AAV), they were added to the media on day 7 to allow for 2-weeks expression prior to recording or testing. All viruses were added to the media at 2e5 multiplicity of infection (MOI). GCaMP6f infection occurred via an adeno-associated virus serotype 9 (AAV9) expressed under the CAG promoter for expression in both neurons and astrocytes. Designer receptors exclusively activated by designer drugs (DREADDs) viruses were used to stimulate and inhibit neuronal activity within spheroids. Both viruses were retrograde AAVs expressed under the human Synapsin promoter for expression in neurons and fused with an mCherry fluorophore. The DREADDs viruses either inserted the designer receptor hM4D(Gi), an inhibitory G-protein coupled receptor, or hM3D(Gq), a stimulatory G-protein coupled receptor. Clozapine-N-oxide (CNO, Tocris cat #4936) was suspended in dimethyl sulfoxide (DMSO) and used as the designer drug to activate the DREADDs viruses. CNO was tested at 1 and 10 μM, with data reported from the 1 μM concentration.\n(§4) Fluorescent Imaging plate Reader (FLIPR): The FLIPR Penta (Molecular Devices) was used to assess calcium fluorescence across the 384-well plate simultaneously and to observe changes after treatment with compounds. The evening before calcium activity was measured, plates were sealed with parafilm and centrifuged at 1485×g for 2-min to get spheroids to the bottom of the well in a centered position. On the day of recording, the plate used for recording was placed in the read plate position inside of the FLIPR following the 2-hour Cal6 incubation at 37° C. Standard filter sets were used for Cal6 imaging with excitation set at 470-495 and emission at 515-575 nm. Fluorescent image reads were taken every 0.6 seconds for all plates, with exposure time of 0.03 and 50% excitation intensity. Recordings from the initial seven plates consisted of 1000 reads and were 10-min recordings with 2.5 gain, while the final two plates consisted of 500 reads (5-min recordings) with a gain of 2. Baseline recordings were taken across all plates and, if applicable, more recordings were obtained 1-, 30-, 60-, and/or 90-min after compound treatment. In between recordings, plates were wrapped in foil and placed back in the incubator at 37° C.\nDAMGO was reconstituted in water at a 1 mM concentration and diluted in media to 20 µM such that spheroids would be treated with a final concentration of 10 μM after the half media exchange. Two aspects of OUD were modeled, chronic treatment along with opioid withdrawal. […]\n384 Pin Tool: A 384 well pin tool (Rexroth) was used to transfer compounds simultaneously to the spheroid plate. […] Compound transfer via the 384 well pin tool occurred after the baseline recordings with the fluorescent imaging plate reader (FLIPR). […]"}, "[4]": {"test_system": "PFC-like and VTA-like spheroids", "assay": "3D Cell Titer Glo spheroid viability", "details": "no DAMGO pre-treatment vs chronic DAMGO vs DAMGO withdrawal", "method": "3D Cell Titer Glo: To measure spheroid cell viability across disease models and after compound treatment, the CellTiter-Glo 3D Cell Viability Assay (Promega, cat #G9681) was used according to the manufacturer's instructions. CellTiter-Glo 3D Reagent was thawed overnight at 4° C. and brought to room temperature (RT) for 20-min before use. After the FLIPR assay, 30 μL of CellTiter-Glo 3D Reagent was added to the spheroid plate and was mixed by shaking for 5-min at RT followed by a 25-min incubation period off the shaker at RT (about 25° C.). Luminescence was read using a PHERAstar FSX microplate reader (BMG LabTech) to measure amount of ATP present, indicating metabolically active cells."}, "PFC-like spheroids [5]": {"test_system": "PFC-like spheroids", "assay": "FLIPR calcium activity with Cal6 dye, control compounds / DAMGO / AD compounds (Example 3)", "details": "10 μM DAMGO; for effect on peak count and peak spacing: recording 30-min later, then naloxone", "method": "as §3, §4\nDAMGO was reconstituted in water at a 1 mM concentration and diluted in media to 20 µM such that spheroids would be treated with a final concentration of 10 μM after the half media exchange. Two aspects of OUD were modeled, chronic treatment along with opioid withdrawal. For spheroids subjected to chronic DAMGO treatment, 20 μM DAMGO in maintenance media was added via half media exchange beginning on day 10, with treatments occurring every other day for 10 days, giving a total of five treatments.\n384 Pin Tool: A 384 well pin tool (Rexroth) was used to transfer compounds simultaneously to the spheroid plate. Prior to compound transfer, the pin tool went through four wash cycles where pins were rinsed with dimethyl sulfoxide (DMSO), followed by methanol, then deionized (DI) water, to ensure the pins were clean. Compound transfer via the 384 well pin tool occurred after the baseline recordings with the fluorescent imaging plate reader (FLIPR). Here, 60 nL of compound suspended in DMSO was transferred to 60 µL of media in each well, diluting the compounds by 1000-fold and giving a final DMSO concentration of 0.1%."}}, "note": "“Also recorded” adds a separate entry of the source.", "data": [{"compound": "C[C@@H](NC(=O)[C@@H](N)Cc1ccc(O)cc1)C(=O)NCC(=O)N(C)[C@@H](Cc1ccccc1)C(=O)NCCO", "note": "[DAMGO, [D-Ala^2, N-MePhe^4, Gly-ol]-enkephalin]", "values": [{"measurement": "effect of chronic DAMGO / DAMGO withdrawal on baseline peak count, amplitude, width, synchrony (confocal)", "setting": "VTA-like spheroids [1]", "result": "increased by DAMGO withdrawal in VTA-like spheroids; also recorded: DAMGO withdrawal reduced peak amplitude in VTA-like but not PFC-like spheroids; also recorded: Chronic DAMGO increased peak width in PFC-like but not VTA-like spheroids; also recorded: DAMGO withdrawal did not impact peak width in either spheroid type; also recorded: DAMGO withdrawal reduced synchrony in VTA-like spheroids"}, {"measurement": "effect of chronic DAMGO / DAMGO withdrawal on baseline peak count, amplitude, width, synchrony (confocal)", "setting": "PFC-like spheroids [2]", "result": "peak count was reduced by chronic DAMGO treatment in PFC-like spheroids; also recorded: synchrony was unaffected in PFC-like spheroids; also recorded: DAMGO withdrawal reduced peak amplitude in VTA-like but not PFC-like spheroids; also recorded: Chronic DAMGO increased peak width in PFC-like but not VTA-like spheroids; also recorded: DAMGO withdrawal did not impact peak width in either spheroid type"}, {"measurement": "effect of chronic DAMGO / DAMGO withdrawal on baseline peak count, amplitude, width (FLIPR)", "setting": "VTA-like spheroids [3]", "result": "chronic DAMGO treatment increased peak count in VTA-like spheroids; also recorded: unaffected in VTA-like spheroids; also recorded: reduced in VTA-like spheroids"}, {"measurement": "spheroid viability (3D CTG)", "setting": "[4]", "result": "spheroid viability was similar"}, {"measurement": "effect on peak count and peak spacing", "setting": "PFC-like spheroids [5]; PFC-like chronic DAMGO-treated spheroids", "result": "chronic DAMGO-treated spheroids treated with either DMSO or DAMGO showed significant reductions in peak count"}, {"measurement": "effect on peak count and peak spacing", "setting": "PFC-like spheroids [5]; PFC-like control spheroids", "result": "significant reduction in peak count was observed in control spheroids acutely treated with DAMGO; also recorded: acute DAMGO treatment in control spheroids increased peak spacing"}, {"measurement": "effect of chronic DAMGO / DAMGO withdrawal on baseline peak count, amplitude, width (FLIPR)", "setting": "PFC-like spheroids [5]; PFC-like spheroids in Cal6 dye, day 21", "result": "peak count was reduced by chronic DAMGO in PFC-like spheroids; also recorded: Peak amplitude was reduced by DAMGO withdrawal in PFC-like spheroids; also recorded: peak width was increased by chronic DAMGO in PFC-like spheroids"}]}]}
